# Reference: US20230142981A1, “METHOD FOR IDENTIFING A MARKER FOR A BIOLOGICAL INTERACTION” (ARPEGGIO BIOSCIENCES, INC., priority 2020, published 2023)
# Columns and labels:
# [1] = system: breast cancer cell line (MCF7); experiment: nascent RNA sequencing (SNAP-seq) of MCF7 cells after estradiol treatment; format: cell-based; conditions: MCF7, 100 nM estradiol, 15 minutes, significance threshold pval 10^−3
# Description: (§1) To assess the sensitivity and dynamic range of the nascent RNA sequencing assay in gauging a cellular response to a stimulus, the performance of a steady state RNA-seq protocol was compared against a nascent RNA sequencing protocol using a breast cancer cell line (MCF7) model and estrogen treatment to elicit a well characterized, widespread transcriptional response driven by ERα and ERβ transcription factors. Briefly, cell cultures were treated with 100 nM estradiol for 15 minutes or left untreated (i.e., untreated controls) and a steady state RNA-seq protocol or the nascent RNA sequencing assay described herein above was performed.
# [2] = system: breast cancer cell line (MCF7); experiment: steady state RNA-seq of MCF7 cells after estradiol treatment; format: cell-based; conditions: MCF7, 100 nM estradiol, 15 minutes, pval 10^−3
# Description: as §1
# [3] = system: HMOX1; experiment: RT-qPCR assay of HMOX1 expression in HT-1080 cells; format: cell-based; conditions: for effect of ferrostatin-1 on induction of HMOX1: HT-1080, sodium arsenite 80 μM, hemin 5 μM, RSL3 1 μM, with or without 1 μM ferrostatin-1, four hours, normalized to DMSO control; for relative expression of HMOX1 in the absence of ferrostatin-1: HT-1080, 1 μM, four hours
# Description: (§2) To confirm HMOX1 induction by the GPX4 inhibitors, an RT-qPCR assay was performed using three ferroptosis sensitive cancer cell lines: the fibrosarcoma cell line HT-1080, a Ewing's sarcoma cell line A673, and a renal clear cell carcinoma cell line 786-O. Briefly, cells were exposed to 1 μM ML162 or 1 μM RSL3 for 4 hours, RNA was isolated and an RT-qPCR assay was performed.
# To further validate induction of HMOX1 mRNA expression by GPX4 inhibition, RT-qPCR was performed using varying doses of the RSL3 inhibitor. Briefly, HT-1080 cells were exposed to 5 μM RSL3, 1 μM RSL3, and 0.2 μM RSL3 for four hours, RNA was isolated and an RT-qPCR assay was performed to quantify HMOX1 expression. DMSO was used as a control exposure.
# (§3) Briefly, HT-1080, A673, and 786-O cells were exposed to 1 μM ML162 or 1 μM RLS3 with or without 1 μM ferrostatin-1 for four hours, RNA was isolated and an RT-qPCR assay was performed to quantify HMOX1 expression. DMSO was used as a control exposure.
# Sodium arsenite and hemin are known to be inducers of general oxidative stress in cells. Briefly, HT-1080 cells were exposed to sodium arsenite (80 μM), hemin (5 μM), ML162 (1 μM), or RSL3 (1 μM) with or without 1 μM ferrostatin-1 for four hours, RNA was isolated and an RT-qPCR assay was performed to quantify HMOX1 expression. DMSO was used as a control exposure.
# [4] = system: A673; conditions: A673, cells treated with small molecules that induce lipid peroxidation; cited from earlier work
# [5] = system: 786-O; conditions: cells treated with small molecules that induce lipid peroxidation; cited from earlier work
# [6] = system: HT-1080; conditions: HT-1080, cells treated with small molecules that induce lipid peroxidation; cited from earlier work
# [7] = system: fibrosarcoma cell line HT-1080; experiment: nascent RNA sequencing of HT-1080 cells exposed to GPX4 inhibitors; format: cell-based; conditions: 1 hour; for number of genes with significant changes in gene transcription: 1 μM, HT-1080 compared with IMR90; for HMOX1 differential expression (nascent RNA sequencing): HT-1080, 1 μM, Pval<10^−2
# Description: (§4) To assess the transcriptional response of a cell to inhibition of GPX4, we exposed two cell lines to two different chemical inhibitors of GPX4 (ML162 and RSL3; available from Sigma Aldrich and Apex Bio respectively) and examined the transcriptional responses using a nascent RNA sequencing protocol. Briefly, a fibrosarcoma cell line HT-1080 and a lung fibroblast cell line IMR90 were exposed to 1 μM ML162 or 1 μM RSL3 for 1 hour and the nascent RNA sequencing protocol was performed.
# [8] = system: lung fibroblast cell line IMR90; experiment: nascent RNA sequencing of IMR90 cells exposed to GPX4 inhibitors; format: cell-based; conditions: IMR90, 1 μM, 1 hour, Pval 10^−3
# Description: as §4
# [9] = system: HMOX1; experiment: RT-qPCR assay of HMOX1 expression in A673 cells; format: cell-based; conditions: A673, 1 μM; for relative expression of HMOX1 in the absence of ferrostatin-1: four hours, relative to ACTB
# Description: as §2, §3
# [10] = system: HMOX1; experiment: RT-qPCR assay of HMOX1 expression in 786-O cells; format: cell-based; conditions: 1 μM; for relative expression of HMOX1 in the absence of ferrostatin-1: four hours, relative to ACTB
# Description: as §2, §3
# [11] = 4 hours, normalized to DMSO control, n=2
compound,measurement,setting,value
C[C@]12CC[C@@H]3c4ccc(O)cc4CC[C@H]3[C@@H]1CC[C@@H]2O [estradiol],"number of differentially expressed genes (estradiol/untreated), nascent RNA sequencing (SNAP-seq)",[1],762
same,"number of differentially expressed genes (estradiol/untreated), steady-state RNA-seq",[2],8
O=[As]O [sodium arsenite],effect of ferrostatin-1 on induction of HMOX1,[3],not affected by the presence of ferrostatin-1
CCOC(=O)c1ccc(NC2CCCCC2)c(N)c1 [ferrostatin-1],rescue of cellular viability (ferroptosis-protective effect),[4],ferroptosis-protective effect has been observed
same,rescue of cellular viability (ferroptosis-protective effect),[5],ferroptosis-protective effect has been observed
same,rescue of cellular viability (ferroptosis-protective effect),[6],ferroptosis-protective effect has been observed
COc1ccc(N(C(=O)CCl)C(C(=O)NCCc2ccccc2)c2cccs2)cc1Cl (stereo not drawn) [ML162],number of genes with significant changes in gene transcription,[7],greater in the HT-1080 cell line relative to the IMR90 cell line
same,HMOX1 differential expression (nascent RNA sequencing),[7],strongly differentially expressed
same,HMOX1 differential expression (nascent RNA sequencing),[8],strongly differentially expressed
same,fold induction for HMOX1 mRNA,[9]; [11],induced
same,relative expression of HMOX1 in the absence of ferrostatin-1,[9],HMOX1 expression was observed
same,fold induction for HMOX1 mRNA,[10]; [11],induced
same,relative expression of HMOX1 in the absence of ferrostatin-1,[10],HMOX1 expression was observed
same,fold induction for HMOX1 mRNA,[3]; 1 µM,induced
same,relative expression of HMOX1 in the presence of ferrostatin-1,"[3]; HT-1080, 1 μM with 1 μM ferrostatin-1, four hours, relative to ACTB",induced HMOX1 even in the presence of ferrostatin-1
same,relative expression of HMOX1 in the absence of ferrostatin-1,[3]; relative to ACTB,HMOX1 expression was observed
hemin,effect of ferrostatin-1 on induction of HMOX1,[3],not affected by the presence of ferrostatin-1
COC(=O)c1ccc([C@@H]2c3[nH]c4ccccc4c3C[C@@H](C(=O)OC)N2C(=O)CCl)cc1 [RSL3],number of genes with significant changes in gene transcription,[7],greater in the HT-1080 cell line relative to the IMR90 cell line
same,HMOX1 differential expression (nascent RNA sequencing),[7],strongly differentially expressed
same,HMOX1 differential expression (nascent RNA sequencing),[8],strongly differentially expressed
same,relative expression of HMOX1 in the absence of ferrostatin-1,[9],HMOX1 expression was observed
same,relative expression of HMOX1 in the absence of ferrostatin-1,[10],HMOX1 expression was observed
same,relative expression of HMOX1 in the absence of ferrostatin-1,[3]; relative to ACTB,HMOX1 expression was observed
same,effect of ferrostatin-1 on induction of HMOX1,[3],dependent on lipid peroxidation
